Source: patent US7078225B2, “Method for enzymatically producing an optically active cyanohydrin” (Nippon Shokubai Co., Ltd., priority 2000, dated 2006)

System: (R)-hydroxynitrile lyase
Assay: Effect of reaction inhibitor in the aldehyde on enzymatic synthesis of (R)-2-chloromandelonitrile (conversion by HPLC after five hours)
Format: biochemical, almond (Prunus amygdalus)
Settings: 1 M aldehyde, 1.5 M prussic acid, immobilized enzyme 600 units, t-butyl methyl ether saturated with citrate buffer pH 5.5, five hours
Description: 2-chlorobenzaldehyde containing undetectable 2-chlorobenzoic acid (reaction inhibitor) was dissolved in t-butyl methyl ether saturated with 0.15 M citrate buffer (pH 5.5) to prepare a 1 M solution of 2-chlorobenzaldehyde. To this solution, 2-chlorobenzoic acid was added in different amounts to prepare aldehyde solutions of varying 2-chlorobenzoic acid contents.
Immobilized (R)-hydroxynitrile lyase (600 units) was introduced into 5 mil of each solution, and prussic acid was then added to reach 1.5 M, followed by synthesis of (R)-2-chloromandelonitrile. Five hours after initiation of the reaction, an aliquot of the reaction mixture was sampled to measure the conversion ratio of aldehyde by HPLC.

How did the “inhibition of the enzyme reaction” value (0.5 wt % 2-chlorobenzoic acid added to 2-chlorobenzaldehyde) turn out when `O=C(O)c1ccccc1Cl` [2-chlorobenzoic acid] was run?
The value was “about 30%”.

What about the “inhibition of the enzyme reaction” value (1.1 wt % 2-chlorobenzoic acid added to 2-chlorobenzaldehyde) of the same compound?
The value was “about 50%”.
